These results are taken from patent publication US5756505A, “N-acylpiperazine derivative, antibacterial drug and anti-ulcer drug” (Shiseido Co., Ltd., priority 1995, dated 1998).

The structures appear in SMILES notation.

One data set deals with stress ulcer formation. Briefly: WIS: Restraint and Water Immersion Stress-Induced Ulcer Inhibition Test. The class given is in vivo, rat (male Crj:SD or Slc:SD). The note with it: rat; for WIS: ulcer formation inhibitory rate: 100 mg/kg oral, 7 hours stress. As to the method: WIS: Restraint and Water Immersion Stress-Induced Ulcer Inhibition Test
The degree of inhibition of the stress ulcer formation is tested.
Male Crj:SDor Slc:SD rats (6 to 7-week-old) were fasted overnight, but allowed free access to water. Each group has 5 to 8 of these rats. The sample compound was dissolved or suspended in an aqueous solution of 0.3% sodium carboxymethylcellulose or 0.05% Tween 80 and then was orally administered (100 mg/10 ml/kg). To a control group, the vehicle was administered. 10 minuts later, the rats were placed in a stress cage and immersed to the level of xipfoid process in a water bath (21° C.) for 7 hours. At the end of the stress, the rats were sacrificed by inhalation of ether or carbon dioxide. Then, the stomach of each was removed, inflated by injecting 10 ml of 5% formalin neutral buffer solution, and immersed in 1% formalin neutral buffer solution for 30 minutes or more to be fixed. The stomach was incised along the greater curvature and then the length of each erosion in the glandular portion was determined under dissecting microscope. The sum of the length of erosions per stomach was defined as ulcer index (UI).
The effect obtained when 100 mg/kg of the sample compound had been administered was expressed as ulcer formation inhibitory rate (%) as follows:
ulcer formation inhibitory rate (%)=[1-(UI in sample group/UI in control group)]×100

Data set [1] concerns isolated gastric fundic gland. Kind of data set: CAP: Acid Secretion Inhibition Test In Vitro ([14C]-aminopyrine uptake). It is filed as cell-based, rabbit (male Japanese White). Particulars: Oryctolagus cuniculus, final concentration 10^-5 M, histamine 10^-5 M, rabbit gastric fundic gland; read-out: CAP: acid secretion inhibitory rate. As for the experimental part: CAP: Acid Secretion Inhibition Test In Vitro
The acid secretion inhibitory activity in a cell level is studied. It can also be used for studying the mechanism of the effect. […]
ii-a) Preparation of isolated gastric fundus gland suspension
First, an isolated gastric fundic gland sample was prepared. Namely, a male Japanese White rabbit (2.5 to 3 kg) was anesthetized to death with Nembutal™ and then the abdomen was incised. Immediately thereafter, the stomach was removed and, after its pyloric and cardiac antrum were severed, incised along its greater curvature into two sheets. The gastric contents adhering to the mucosal surface was washed out with ice-cooled PBS (-) and then carefully washed therein. The gastric wall was spread on a cork board with its mucosal surface facing up and the feed and mucus thereon were completely removed with sterile gauze. The mucosa was separated therefrom by a spatula and then collected in ice-cooled PBS (-). After being washed twice with PBS (-), the mucosa was minced into 2-3mm^3 pieces by scissors. These pieces were further washed twice with a nutrient solution. The nutrient solution comprises 132.4 mM of NaCl, 5.4 mM of KCl, 5 mM of Na2 HPO4 ·12H2 O, 1 mM of NaH2 PO4 ·2H2 O, 1.2 mM of MgSO4, 1 mM of CaCl2, 25 mM of HEPES, 2mg/ml of glucose, and 1 mg/ml of BSA. Into 70 ml of the nutrient solution containing 1 mg/ml of collagenase, minced mucosal pieces were dispersed and intensely stirred in a conical flask with a stirrer at 37° C. for 40 to 60 minutes. During this period, 100% O2 was sprayed on the nutrient solution surface and the pH was appropriately measured such that it was immediately adjusted to pH 7.4, when the value was therebelow, with a base. The nutrient solution was added to the reaction solution so as to attain the total amount of about 200 ml. After being filtered through a mesh, the suspension was divisionally introduced into 50 ml centrifuge tubes and left for 15 minutes such that gastric fundic gland was deposited. The supernatant was repeatedly removed by an aspirator, dispersed in the nutrient solution, and then left such that the gastric fundic gland was washed three times. At this time, without using a pipette, the suspension was alternately introduced into two centrifuge tubes so as to effect dispersion. The number of cells was counted under microscope and adjusted to 1.6×10^6 cells/ml. […]
ii-b) [^14 C]-aminopyrine uptake test
Then, [^14 C]-aminopyrine uptake test was performed. After an Eppendorf tube was weighed, 10 μl (final concentration: 10^-5 M) of histamine dissolved in the above-mentioned nutrient solution, 10 μl (final concentration: 10^-5 M) of the test compound dissolved in DMSO, and 10 μl (final concentration: 0.05 μCi/ml) of [^14 C]-aminopyrine diluted with the nutrient solution were introduced therein and then 970 μl of the isolated gastric fundic gland suspension prepared above were added thereto. Subsequently, this mixture was shaken at 37° C. for 40 minutes at 125 cycles/minute. After being centrifuged for 30 minutes 200 μl of its supernatant was collected into a mini-vial, while the rest was removed by an aspirator. The gland pellet was completely dried as the tube with its lid being opened was kept for one night in a drying oven at 80° C. and then the lid was closed and the weight was determined at room temperature. Then 100 μl of 1N KOH were added thereto and the tube with its lid being closed was treated at 60° C. for 1 to 2 hours so as to dissolve the pellet. Then, the contents thereof were transferred to a mini-vial. Into the mini-vial containing the supernatant or gland pellet, 4 ml of Atomlite™ were added and then the radioactivity was measured by a liquid scintillation counter. Here, after the radioactivity of the gland pellet was corrected by using a sample in which 20 mM of NaSCN were added so as to cancel the hydrogen ion concentration gradient, the integration ratio of aminopyrine specifically trapped by the gland pellet was calculated. […]

Data set [2] is described as follows: MTT: Cell Damaging and Protecting Effect Test. It is filed as cell-based, rabbit (male Japanese White). The note with it: rabbit, gastric mucosal cells, final concentration 10^-4 M, 4 hours; smaller value is better; read-out: MTT: cell damaging rate. The text has this:
MTT: Cell Damaging and Protecting Effect Test
It is confirmed that there is no toxicity in cell level. Those having a toxicity in cell level are inappropriate as an anti-ulcer drug.
A male Japanese White rabbit (2.5 to 3 kg) was anesthetized to death by Nembutal™ and, immediately thereafter, its stomach was removed. The greater curvature of the stomach was incised so as to remove the stomach contents therefrom. After the mucosal surface was washed with HBSS (Hanks' Balanced Salt Solution), the stomach in ice-cooled HBSS was transferred to a laboratory. Then, after the pyloric antrum was removed, the gastric corpus mucosa was separated by a spatula and then minced into 2 to 3 mm^3 pieces in BME (Basal Medium Eagle). Thereafter, these pieces were shaken at 120 to 130 cycles/minute for 15 minutes at 37° C. in BME 60ml containig 280 U/ml of dispase and 30 to 50 U/ml of collagenase. Here, the concentration of collagenase was appropriately changed for each lot in view of the state of cells. The pieces were washed twice with EBSS (Earle's Balanced Salt Solution) containing 1 mM of EDTA and then shaken in MEM (Minimum Essential Medium) containing 1 mM of EDTA at 37° C. for 5 minutes. Subsequently, they were shaken in the dispase and collagenase having the same concentrations as those mentioned above for 15 minutes so as to remove the supernatant and then further shaken at 37° C. for 50 to 60 minutes at 120 to 130 cycles/minute. Then, after being washed twice with HBSS, Ham F12 containing 2% of Ultrocer G™ was used to attain the concentration of 1×10^6 cells/ml. Thus formed suspension was dispensed in each well of a 96-well plate by 200 μl. The plate was incubated in the atmosphere composed of 5% CO2 and 95% air at 37° C. for three days so as to attain a confluent state and then subjected to MTT assay.
The sample compound was dissolved in DMSO so as to attain a concentration of 10^-2 M and then diluted with HBSS containing 2% of Ultrocer G™ so as to attain a final concentration of 10^-4 M. To each group, which 8 wells were used for, 10 μl of MTT reagent were added immediately after 100 μl of the medium in each well were exchanged for same volume of the resulting solution of the sample compound. After being incubated in an atmosphere composed of 5% CO2 and 95% air at 37° C. for 4 hours, thus formed solution was centrifuged and then its supernatant was discarded. Subsequently, 100 μl of 100% ethanol were added to the residue so as to dissolve MTT formazan. Then, the absorbance (OD: 570 to 630) was measured by a microplate reader. This method utilizes a phenomenon in which MTT is changed to MTT formazan only by mitochondria of living cells so as to change color.
The cell damaging or cell protecting effect of the sample compound at the final concentration of 10^-4 M was expressed as cell damaging rate (%) as follows:
cell damaging rate (%)=[1-(absorbance in sample group/absorbance in control group)]×100
Accordingly, the smaller value is better in the cell damaging rate.

The conditions of data set [3]: cited from earlier work.

As to `CC(C)CN1CCN(C(=O)c2ccc(OCc3ccc(F)cc3)c(N)c2)CC1.Cl.Cl` [Example 1, 1-[3-amino-4-(4-fluorobenzyloxy)benzoyl]-4-isobutylpiperazine dihydrochloride], the “WIS: ulcer formation inhibitory rate” value in the data set on stress ulcer formation turned out to be 88%.
For the compound `COc1cc(C(=O)N2CCN(CC(C)C)CC2)ccc1OCc1ccc(F)cc1.Cl` [Example 7, 1-[4-(4-fluorobenzyloxy)-3-methoxybenzoyl]-4-isobutylpiperazine hydrochloride], the inhibition at 10 µM in data set [1] was 100%. Moreover, the “WIS: ulcer formation inhibitory rate” value in the data set with stress ulcer formation is reported as 48%. In addition, in data set [2], the cytotoxicity at 4 h, 100 µM was -72%.
`CC(C)Cc1cc(C(=O)N2CCN(CCOC(=O)c3ccc4c(c3)OCO4)CC2)ccc1OCc1ccc(F)cc1` [Example 10, 1-[4-(4-fluorobenzyloxy)-3-isobutylbenzoyl]-4-[2-(piperonyloyloxy)ethyl]piperazine]: the inhibition at 10 µM in data set [1] worked out at 100%. Further, the “WIS: ulcer formation inhibitory rate” value in the data set with stress ulcer formation is on record as 54%. Besides, the “anti-ulcer effect (in words)” value with stress ulcer formation (in vivo) is on record as “sufficient effects”. The cytotoxicity at 4 h, 100 µM in data set [2] is 34%.
For the compound `CC(C)Cc1cc(C(=O)N2CCN(CC(C)C)CC2)ccc1OCc1ccc(C#N)cc1.Cl` [Example 11, 1-[4-(4-cyanobenzyloxy)-3-isobutylbenzoyl]-4-isobutylpiperazine hydrochloride], in data set [1], the inhibition at 10 µM was determined as 100%. Further, the “WIS: ulcer formation inhibitory rate” value in the data set with stress ulcer formation is reported as 94%. For the same compound, in data set [2], the cytotoxicity at 4 h, 100 µM is -77%.
As a reminder, the pKa is the pH at which an ionisable group is half protonated. Take `Cc1c(N(C)C)c(=O)n(-c2ccccc2)n1C` [aminopyrine]: the pKa in data set [3] is recorded as 5.0.
